Structures are written as SMILES.

The nature of the series: Human HepG2 cell viability assay in 384 well format. More on the design: dose 125 nL, time 70.5 hour; concentration not given beside the values. In kind it is toxicity, cell-based. Particulars: HepG2 cells, read-out: Inhibition.
As for `CN1CCN(CCn2cnc3c(F)cccc3c2=O)CC1`, the cytotoxicity at 70.5 h was -1.43%.
Regarding `CN1CCN(CCOc2ccc(NC(=O)c3ccoc3)cc2)CC1`, the cytotoxicity at 70.5 h is -4.12%.
`Cn1cc(CN2CC3(CCN(C(=O)c4ccoc4)C3)C2)cn1`: the cytotoxicity at 70.5 h is -6.02%.
The value for `O=C(Nc1cccnc1N1CCSCC1)c1ccc2c(c1)OCO2` was -4.23%; that for `Cc1nc(CNC(=O)Nc2c(C)n[nH]c2C)cs1` was -9.25%; that for `CC(C)c1nsc(NC2CCOC3(CCCC3)C2)n1` (stereo not drawn) was -0.215%.
The result for `CC1(C)CN(c2cc(C3CC3)ncn2)C[C@]1(C)O` reads 21.7%; that for `CCc1nc2n(n1)CC(NCc1nnc(C(C)C)o1)CC2` (stereo not drawn), 19.3%; that for `COc1cccc(N2CC3(CCN(c4cc(OC)ncn4)C3)CC2=O)c1` (stereo not drawn), 7.12%.
Consider `Cc1cc2nc(SCC(=O)N3CCOCC3)n(C(C)C)c(=O)c2[nH]1`, for which the cytotoxicity at 70.5 h was -5.42%.
The value for `COc1ccc2cccc(CC(=O)NCc3n[nH]c(=O)[nH]3)c2c1` was -1.52%; that for `CNCC(=O)N1CCCC(c2cccc(Nc3nc(C)cc(C)n3)n2)C1` (stereo not drawn) was 58.7%.
`CC(C)(C)c1nc(CNC2CCCN(c3cccnn3)C2)no1` (stereo not drawn): the cytotoxicity at 70.5 h was -0.0267%.
As to `CN(CC(=O)Nc1nc2c(s1)CCC2)C(=O)c1cccs1`, the cytotoxicity at 70.5 h was -12.8%.
As for `COC[C@@]12CCO[C@@H]1CCN(C(=O)Cc1ccccc1F)C2`, the cytotoxicity at 70.5 h is -10.5%.
The result for `CC(=O)NCC(=O)N1Cc2nccn2CC(Cn2cccn2)C1` (stereo not drawn) reads -4.71%; that for `CSCCC(O)C(=O)N1CCC(OCc2cccnc2)CC1` (stereo not drawn), 16.3%.
`CC(=O)N1CCC2(CC1)C(=O)N(c1cccnc1)c1ccc(F)cc12`: the cytotoxicity at 70.5 h was -4.87%.
The result for `COc1ccc(-c2nnc(SC(C)C(=O)NCC(C)C)[nH]2)c(OC)c1` (stereo not drawn) reads 56.9%; that for `COc1cccc(CC(=O)N2CCN(C)c3ncccc3C2)c1`, 1.87%.
For `Cc1cnc(C(=O)NCc2ccc3c(c2)CCCN3C)cn1`, the cytotoxicity at 70.5 h was -4.01%.
Regarding `CCOc1cccc2c1OCC(=O)N(c1ccc3c(c1)OCO3)C2`, the cytotoxicity at 70.5 h is 14.7%.
Turning to `CN(CCn1ccnc1-c1ccccn1)S(C)(=O)=O`, the cytotoxicity at 70.5 h worked out at 11.9%.
Take `CN(C)S(=O)(=O)N1CCC(Oc2cccnn2)CC1`: the cytotoxicity at 70.5 h turned out to be 0.601%.
On to `CCc1ccc(CNc2cc(N3CCCC3CO)ncn2)s1` (stereo not drawn), for which the cytotoxicity at 70.5 h worked out at 1.8%.
As to `CC(C)C(=O)N1CCN(C(=O)c2cc(C(C)C)on2)[C@H]2CS(=O)(=O)C[C@H]21`, the cytotoxicity at 70.5 h was determined as 14.2%.
The result for `CCC1CCCN(Cc2nc(N)c3ccccc3n2)C1` (stereo not drawn) reads 4.3%; that for `CCS(=O)(=O)N1CCc2ccc(NC(=O)NCc3ccccc3)cc21`, -3.62%; that for `Cc1noc(C2CCC3(CCN(C(=O)C4CCOCC4)CC3)O2)n1` (stereo not drawn), 2.64%.
As to `C[S+]([O-])CCCNC(=O)c1cc(Br)c2c(c1)OCCO2` (stereo not drawn), the cytotoxicity at 70.5 h was -0.213%.
Turning to `CCCc1cc(C(=O)N(Cc2cccnc2)C2CCCCC2)[nH]n1`, the cytotoxicity at 70.5 h was -7.56%.
As to `CC(O)CN(CC(=O)NC1CCCCC1)c1ccccc1` (stereo not drawn), the cytotoxicity at 70.5 h is 8.65%.
As to `c1cnc(N2CC[C@@H]3O[C@@H](COCc4cccnc4)CC[C@@H]32)nc1`, the cytotoxicity at 70.5 h was -0.916%.
As to `N#Cc1ccc(F)c(CNC(=O)NC(CO)Cc2ccccc2)c1` (stereo not drawn), the cytotoxicity at 70.5 h was -3.61%.
`NC(=O)C1CCN(Cc2cccc(NC(=O)c3ccsc3)c2)CC1`: the cytotoxicity at 70.5 h was found to be 0.035%.
On to `COc1ncccc1NC(=O)NC1CCOc2ccccc21` (stereo not drawn), for which the cytotoxicity at 70.5 h is -14.2%.
In the case of `CC(=O)N1CCC(Nc2cccc(OC(F)F)c2C)CC1`, the cytotoxicity at 70.5 h is -7.15%.
`Cc1nc(N2CCCC2)ncc1-c1cc(O)n2ncnc2n1`: the cytotoxicity at 70.5 h is -2.97%.
`Cc1ccsc1CN(C)C(=O)c1ccc(N2CCOCC2)c(F)c1`: the cytotoxicity at 70.5 h is -7.5%.
For the molecule `N#CC(NC(=O)CCC(=O)NC1CCCC1)c1ccc(F)cc1F` (stereo not drawn), the cytotoxicity at 70.5 h is -11.2%.
The value for `O=S1(=O)CCC(n2cc(CNCC3(c4ccccc4)CC3)cn2)C1` (stereo not drawn) was 30.7%; that for `Cc1cnc(C)c(N2CCCC(C/C=C/c3ccccc3)(C(=O)O)C2)n1` (stereo not drawn) was -7.68%.
The value for `Cc1ccc(CN2C[C@H](NC(=O)c3nccn3C)[C@H]3OCCC[C@H]32)o1` was 18.3%; that for `CC1CCN(CCNC(=O)c2scnc2Cl)CC1` was 18.5%; that for `O=C(NC1CC1)[C@@H]1CCO[C@@H]2CCN(CC3CCC3)C[C@H]21` was -2.8%.
As for `Cn1ccnc1COc1ccc(CSc2nncn2C2CC2)cc1`, the cytotoxicity at 70.5 h was -8.64%.
Consider `CC(C)c1noc(C2CCN(C(=O)c3cccs3)CC2)n1`, for which the cytotoxicity at 70.5 h is -5.14%.
`CNC(=O)C1(c2cnccn2)CCCN1C(=O)Cc1ccsc1` (stereo not drawn): the cytotoxicity at 70.5 h is -6.75%.
Consider `COCC(=O)NCc1cc(=O)n2c(n1)CN(Cc1cccs1)CCC2`, for which the cytotoxicity at 70.5 h was -6.99%.
Take `CCCc1noc(CN2CCC(N(C)Cc3nnc(C4CC4)o3)C2)n1` (stereo not drawn): the cytotoxicity at 70.5 h was determined as 4.17%.
The value for `COCC(=O)N1CCC(Nc2ccnc3ccc(Cl)cc23)CC1` was 4.85%; that for `Cc1c(-c2ccccc2)ncn1CC(c1cccnc1)N1CCOCC1` (stereo not drawn) was -2.03%; that for `O=C1c2cccnc2OC(CN2CCOCC2)CN1Cc1cccs1` (stereo not drawn) was -4.39%.
For `CCOC(=O)CNC(=O)NCc1cccn1Cc1cccc(C)c1`, the cytotoxicity at 70.5 h was -18.9%.
`O=C(c1cccc2c1OCO2)N1CCCC1c1noc(C2CC2)n1` (stereo not drawn): the cytotoxicity at 70.5 h is 31.3%.
The value for `O=C(c1ccc(=O)[nH]c1)N1C[C@@H]2CC[C@H](C1)N(Cc1ccccc1)C2` was -8.28%.
For `Cn1c(=O)c2cc(C(=O)NCc3ccncc3)ccc2n(C)c1=O`, the cytotoxicity at 70.5 h was 2.17%.
On to `Cc1ccc(CN2CC[C@H]3OCC[C@@H](C(=O)N4CCCCO4)[C@@H]3C2)o1`, for which the cytotoxicity at 70.5 h was 47.1%.
Regarding `CN1C[C@@H](n2cnc(-c3ccccc3)c2-c2ccccn2)C[C@H]1C(=O)O`, the cytotoxicity at 70.5 h is -10%.
In the case of `N#Cc1ccccc1CC1CCCS(=O)(=O)C1` (stereo not drawn), the cytotoxicity at 70.5 h came to 1.43%.
As to `O=C(C1CC1)N1CC[C@H]2[C@@H]1CCC(=O)N2c1ccccc1`, the cytotoxicity at 70.5 h was -2.42%.
Consider `CC(C)c1cccc(-n2cc(O)c(C(=O)NCCC(=O)N(C)C)n2)c1`, for which the cytotoxicity at 70.5 h was -6.63%.
Consider `CCOc1cc(C(=O)N(C)C)ccc1NC(=O)C(C)c1ccsc1` (stereo not drawn), for which the cytotoxicity at 70.5 h was 26%.
Consider `Cc1ccccc1C(=O)N1Cc2c(Cn3ccnc3)nn(C)c2C1`, for which the cytotoxicity at 70.5 h is -9.48%.
Take `O=C1CC(c2ccc(Cl)c(Cl)c2)c2c(n3ccsc3nc2=O)N1` (stereo not drawn): the cytotoxicity at 70.5 h amounted to 10%.
`CCC(C(=O)NC(C)(C)C)n1ccc2ncccc2c1=O` (stereo not drawn): the cytotoxicity at 70.5 h was -17.5%.
For `Cc1nc(C)n(CC2CCCN2Cc2ncc(C(C)(C)C)o2)n1` (stereo not drawn), the cytotoxicity at 70.5 h was -4.1%.
As for `O=C1CC(c2ccncc2)C2(CCN(C(=O)c3ccnnc3)CC2)N1` (stereo not drawn), the cytotoxicity at 70.5 h was -8.48%.
`CS(=O)(=O)N1CC[C@@H]2O[C@@H](COCC(=O)N3CCCC3)CC[C@@H]21`: the cytotoxicity at 70.5 h was determined as 22.1%.
Consider `COCCN(C)C[C@@H]1CCC[C@@H]2CN(c3cc(OC)ncn3)C[C@@H]21`, for which the cytotoxicity at 70.5 h was -4.84%.
As for `CCn1c(CN2CCCC(O)(c3ccc(F)cc3)CC2)cnc1SC` (stereo not drawn), the cytotoxicity at 70.5 h was -5.35%.
Consider `CN(C)Cc1nnc(C2CCCN(c3ncccc3F)C2)n1C` (stereo not drawn), for which the cytotoxicity at 70.5 h is 24.4%.
Take `O=C(CNc1cccc2c1CCCC2)Nc1ccccc1Br`: the cytotoxicity at 70.5 h was found to be 2.61%.
For the molecule `CCc1nc(CN(C)C(=O)c2cc(CN(CC)CC)c(CC)o2)no1`, the cytotoxicity at 70.5 h was -11.7%.
Turning to `O=C(CSc1ccc2c(c1)OCCO2)NS(=O)(=O)c1ccccc1`, the cytotoxicity at 70.5 h is -8.6%.
In the case of `CC(C)CNC(=O)c1nnsc1-c1ccccc1`, the cytotoxicity at 70.5 h is -11.5%.
With `CCNC(c1ccc(CC)cc1)c1cccnc1` (stereo not drawn), the cytotoxicity at 70.5 h amounted to 7.31%.
Regarding `CCC(C)[C@H](NC(=O)c1cc(F)ccc1-n1cnnn1)C(=O)OC` (stereo partly drawn), the cytotoxicity at 70.5 h was -13.4%.
On to `CCCn1ncc(C(=O)N2CCN(C3CCCC3)CC2)c1C`, for which the cytotoxicity at 70.5 h was -3.82%.
Turning to `Cc1nc(O)cc(CCNC(=O)C2CC(=O)N(CC(C)C)C2)n1` (stereo not drawn), the cytotoxicity at 70.5 h was -8.39%.
Consider `Cc1ccc2cc(CNCCCN3CCOCC3)c(=O)[nH]c2c1C`, for which the cytotoxicity at 70.5 h is -8.68%.
Turning to `CNc1nc(C(=O)NCc2cccnc2N(C)C)cs1`, the cytotoxicity at 70.5 h stood at 1.65%.
Regarding `Cc1ccc(CN2CC3(CCN(C(=O)Cc4ccc(Cl)cc4)C3)C2)o1`, the cytotoxicity at 70.5 h was -5.73%.
The result for `O=S1(=O)COCCN1CCCOc1ccc(F)cc1` reads 22.1%; that for `CSC(C)C(=O)NCCCc1cc(N)n(-c2ccccc2)n1` (stereo not drawn), 1.73%.
In the case of `Cc1nccn1[C@@H]1CC[C@@H](NC(=O)CCOc2ccccc2)[C@H]1O`, the cytotoxicity at 70.5 h was 16.9%.
The value for `CS(=O)(=O)NCC1CCN(C(=O)Oc2ccccc2)CC1` was -3.79%.
In the case of `CC(=O)N1CCC2(CCCN(C(=O)CCN3CCCCC3)C2)C1` (stereo not drawn), the cytotoxicity at 70.5 h worked out at 20.2%.
Regarding `Cc1cc(CN2CC[C@H]3C[C@H](c4nccs4)O[C@@H]3C2)no1`, the cytotoxicity at 70.5 h is -15.6%.
The value for `O=C(c1cnco1)N1CCCC(Cc2cccc3ncccc23)C1` (stereo not drawn) was -0.138%.
Take `CC(=O)N1CCC2(C1)CN(C(=O)C1CCOC1)C2` (stereo not drawn): the cytotoxicity at 70.5 h is -11.2%.
As to `COCCN1CCc2c(c(COc3cccnc3)nn2C)C1`, the cytotoxicity at 70.5 h is -8.79%.
As to `CCCn1cc(NC(=O)c2ccc(S(=O)(=O)CC)cc2)ccc1=O`, the cytotoxicity at 70.5 h came to 22.4%.
Take `CC(=O)N1CCCCCC1C1CCN(Cc2nc(C(C)C)no2)CC1` (stereo not drawn): the cytotoxicity at 70.5 h came to 0.62%.
Regarding `O=C(NCCc1ccn(-c2ccccc2)n1)N1CCCC(O)C1` (stereo not drawn), the cytotoxicity at 70.5 h came out at 1.8%.
The result for `COc1ccc(C2CCN(Cc3cscn3)CC2)cc1` reads 0.308%; that for `CC(C)c1cnc(CN2CCCC(c3ccn[nH]3)C2)o1` (stereo not drawn), -7.68%.
With `Cc1cn2nc(N(C)C3CCCN(c4cccnn4)C3)sc2n1` (stereo not drawn), the cytotoxicity at 70.5 h is -11.5%.

The values are drawn from ChEMBL document CHEMBL3507680, “University of Dundee, Gates Library screen for HepG2 cell viability”.
